For data set [1], the target named is T1, hKv1.6 channel (Homo sapiens, UniProt P17658).
T1 construct: expressed in transfected cells; host or cells: HEK293T
Kind of data set: Whole-cell patch clamp, hKv1.6 channel overexpressed in HEK293T cells. The settings on record: 1 μM peptide, mean ± S.E., n ≥ 3, SEM. It counts as cell-based. The method, then:
(§1) To investigate the electrophysiological activities of BmK86-P1, the whole-cell patch clamp technique was applied to test the effects of BmK86-P1 on multiple potassium channels. The hKv1.1, hKv1.2, hKv1.3, hKv1.6, hKv3.2, mKv4.1, rKv4.2, rKv4.3 and hERG channels were overexpressed in HEK293T cells, then the inhibitory effects of BmK86-P1 at 1 μM on these potassium channels were measured. […] To further investigate the affinity of BmK86-P1 inhibiting the hKv1.2 channel, a dose-dependent study was performed by examining the inhibitory effects of different concentrations of BmK86-P1.
(§2) All potassium channel expression vectors were given by others or constructed by ourselves. HEK293T cells were cultured in Dulbecco’s modified Eagle medium (Gibco, Pittsburgh, PA, USA) with 10% fetal bovine serum and penicillin/streptomycin (100 units/mL) in a 5% CO2 incubator at 37 °C. […] The potassium currents were recorded after transfection for 1 to 3 days.
(§3) The channel currents were measured and recorded by whole-cell patch clamp technology according to previously published references. […] The channel currents were recorded at room temperature (~25 °C) using an EPC 10 patch clamp amplifier. […]
(§4) The ClampFit (Molecular Devices, Sunnyvale, CA, USA) and SigmaPlot software ([…], Chicago, IL, USA) were used to analyze the recorded data. […]
On the technique in general: In patch-clamp work, channel activity is measured electrically.

Data set [2] has as its target T2, hKv1.2-M3 chimeric channel (Homo sapiens, UniProt P16389, T383V/V381Y).
T2 construct: expressed in transfected cells; host or cells: HEK293T
The data set is described as follows: Whole-cell patch clamp, chimeric channel hKv1.2-M3 (turret or filter region of hKv1.2 substituted by that of hKv1.1). Format: cell-based. The settings on record: 100 nM peptide, HEK293T, mean ± S.E., n ≥ 3, SEM. The text has this: The turret and filter region of potassium channels have different effects on the toxin binding for different scorpion toxins. To investigate the importance of these two regions of potassium channels in interacting with BmK86-P1, another two channel chimeras (i.e., hKv1.2-M2 and hKv1.2-M3) were constructed, in which the turret or the filter region of the hKv1.2 channel was substituted by the equivalent region of the hKv1.1 channel.
(§5) All potassium channel expression vectors were given by others or constructed by ourselves. HEK293T cells were cultured in Dulbecco’s modified Eagle medium (Gibco, Pittsburgh, PA, USA) with 10% fetal bovine serum and penicillin/streptomycin (100 units/mL) in a 5% CO2 incubator at 37 °C. Potassium channel expression vectors and pEGFP-N1 were co-transfected into HEK293T cells using TurboFect in vitro Transfection Reagent (Thermo Scientific, Waltham, MA, USA) according to the manufacturer’s instructions. The potassium currents were recorded after transfection for 1 to 3 days.
The channel currents were measured and recorded by whole-cell patch clamp technology according to previously published references. The internal patch pipette solution and the bath solution were prepared as previously described. […] The channel currents were recorded at room temperature (~25 °C) using an EPC 10 patch clamp amplifier. […]

Data set [3] has as its target T3, hERG channel (Homo sapiens, UniProt Q12809).
T3 construct: expressed in transfected cells; host or cells: HEK293T
Format: cell-based. Particulars: 1 μM peptide; whole-cell patch clamp, HEK293T; mean ± S.E., n ≥ 3; SEM. The method, then: as §1, §2, §3, §4

Data set [4] deals with T4, hKv1.2-R354A (Homo sapiens, UniProt P16389, R354A).
T4 construct: expressed in transfected cells; host or cells: HEK293T
T4 sequence (P16389 whole entry R354A): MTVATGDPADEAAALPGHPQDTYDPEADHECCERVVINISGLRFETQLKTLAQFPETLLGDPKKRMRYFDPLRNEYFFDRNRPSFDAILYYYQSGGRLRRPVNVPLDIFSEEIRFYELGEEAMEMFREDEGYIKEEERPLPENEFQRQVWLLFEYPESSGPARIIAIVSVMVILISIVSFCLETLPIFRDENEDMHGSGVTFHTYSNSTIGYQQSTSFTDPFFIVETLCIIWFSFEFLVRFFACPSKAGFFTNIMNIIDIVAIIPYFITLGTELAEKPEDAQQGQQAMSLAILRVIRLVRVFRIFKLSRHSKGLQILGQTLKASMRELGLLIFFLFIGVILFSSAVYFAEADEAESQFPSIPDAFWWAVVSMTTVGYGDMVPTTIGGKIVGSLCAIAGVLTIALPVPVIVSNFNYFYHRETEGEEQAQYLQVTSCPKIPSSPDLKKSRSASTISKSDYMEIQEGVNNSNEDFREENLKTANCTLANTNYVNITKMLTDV
Kind of data set: Whole-cell patch clamp, hKv1.2 channel mutant R354A. Format: cell-based. The settings on record: 100 nM peptide, HEK293T, mean ± S.E., n ≥ 3, SEM. As for the experimental part: To determine the functional sites of the hKv1.2 channel responsible for the selectivity of BmK86-P1, six hKv1.2 mutants were obtained based on sequence differences between the pore regions of the hKv1.2 and hKv1.1 channels (Figure 4A). Then, the activities of 100 nM BmK86-P1 on these six mutant channels were tested. […] The other three mutant channels (hKv1.2-D352E, hKv1.2-R354A and hKv1.2-P359S) still kept similar sensitivities toward BmK86-P1 compared with the wild-type hKv1.2 channel (Figure 4H,I,K,N).
as §5, §3

Data set [5] deals with T5, hKv1.2-M1 chimeric channel (Homo sapiens, UniProt P16389, D352E/P359S/Q357H/R354A/T383V/V381Y).
T5 construct: expressed in transfected cells; host or cells: HEK293T
T5 sequence (P16389 whole entry D352E/R354A/Q357H/P359S/V381Y/T383V): as the sequence (P16389 whole entry R354A) above, with D352E, Q357H, P359S, V381Y, T383V counted along it
Kind of data set: Whole-cell patch clamp, chimeric channel hKv1.2-M1 (S5-S6 linker of hKv1.2 replaced by that of hKv1.1). Format: cell-based. The settings on record: 100 nM peptide, HEK293T, mean ± S.E., n ≥ 3, SEM. The method, then: The binding interface of potassium channels for scorpion toxins is the pore region, which includes the turret and filter regions. We first investigated whether BmK86-P1 peptide binds to the pore region of the hKv1.2 channel.
as §5
The channel currents were measured and recorded by whole-cell patch clamp technology according to previously published references. The internal patch pipette solution and the bath solution were prepared as previously described. All the test peptides were dissolved into bath solution supplemented with 0.01% BSA. An MPS-2 multichannel microperfusion system (INBIO Inc., Wuhan, China) was applied to change the external recording bath solution. […] The channel currents were recorded at room temperature (~25 °C) using an EPC 10 patch clamp amplifier. […]

Data set [6] is described as follows: Thermal stability of secondary structure by CD spectroscopy. The settings on record: 0.2 mg/mL in ddH2O, 20, 35, 50, 65, 80 and 95 °C, then returned to 20 °C, average of three scans. It counts as physicochemical. The method, then: In order to characterize the thermal stability of BmK86-P1, we analyzed the secondary structure of BmK86-P1 peptide in aqueous solutions at different temperatures (20 °C, 35 °C, 50 °C, 65 °C, 80 °C and 95 °C) by CD spectroscopy.
The secondary structures of BmK86-P1 and its mutants in water were measured by circular dichroism (CD) spectroscopy as previously described using a ChirascanTM V^100 spectrometer (Applied Photophysics, Surrey, UK). All the peptides were dissolved into ddH2O at a concentration of 0.2 mg/mL. At a range of wavelengths from 180 to 260 nm, the absorption spectra of peptides were recorded at room temperature. The speed scanning was 1 nm/s with a response time of 1 s. […] (deg·cm^2·dmol^−1).

Data set [7] concerns the target T6, hKv1.1 channel (Homo sapiens, UniProt Q09470).
T6 construct: expressed in transfected cells; host or cells: HEK293T
The data set is described as follows: Whole-cell patch clamp, hKv1.1 channel overexpressed in HEK293T cells. It counts as cell-based. The settings on record: mean ± S.E., n ≥ 3, SEM. The method, then:
as §1, §2, §3, §4

Positions of bridges follow the written chain, without caps; N, C: chain ends. Residues, ends and D or L forms follow the SMILES beside them.

T6 sequence (Q09470 whole entry): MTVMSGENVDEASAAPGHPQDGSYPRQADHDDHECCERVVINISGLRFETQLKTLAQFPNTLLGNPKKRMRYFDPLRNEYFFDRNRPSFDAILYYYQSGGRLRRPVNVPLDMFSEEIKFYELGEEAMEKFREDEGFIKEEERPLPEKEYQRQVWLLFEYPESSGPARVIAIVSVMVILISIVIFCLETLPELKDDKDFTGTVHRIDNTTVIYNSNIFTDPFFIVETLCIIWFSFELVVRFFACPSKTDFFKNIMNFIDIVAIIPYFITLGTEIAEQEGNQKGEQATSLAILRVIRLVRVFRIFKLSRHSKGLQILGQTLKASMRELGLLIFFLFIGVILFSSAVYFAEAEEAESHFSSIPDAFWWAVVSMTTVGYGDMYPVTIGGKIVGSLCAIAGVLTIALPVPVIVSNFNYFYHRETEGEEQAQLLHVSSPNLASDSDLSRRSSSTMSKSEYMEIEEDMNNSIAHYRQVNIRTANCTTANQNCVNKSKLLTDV
T1 sequence (P17658 whole entry): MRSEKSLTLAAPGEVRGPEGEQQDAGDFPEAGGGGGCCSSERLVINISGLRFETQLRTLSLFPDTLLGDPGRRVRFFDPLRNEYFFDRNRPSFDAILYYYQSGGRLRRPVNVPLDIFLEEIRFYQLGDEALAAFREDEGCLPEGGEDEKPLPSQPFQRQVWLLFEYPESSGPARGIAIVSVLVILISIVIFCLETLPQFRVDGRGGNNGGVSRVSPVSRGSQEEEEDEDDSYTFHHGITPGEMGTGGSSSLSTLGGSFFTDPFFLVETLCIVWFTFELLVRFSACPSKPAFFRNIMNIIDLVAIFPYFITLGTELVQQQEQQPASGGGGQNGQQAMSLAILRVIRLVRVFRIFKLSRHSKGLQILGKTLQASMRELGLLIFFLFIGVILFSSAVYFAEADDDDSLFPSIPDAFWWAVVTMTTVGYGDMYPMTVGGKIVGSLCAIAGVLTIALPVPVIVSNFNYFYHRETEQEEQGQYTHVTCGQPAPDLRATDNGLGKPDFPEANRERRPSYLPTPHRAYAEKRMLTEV
T3 sequence (Q12809 whole entry): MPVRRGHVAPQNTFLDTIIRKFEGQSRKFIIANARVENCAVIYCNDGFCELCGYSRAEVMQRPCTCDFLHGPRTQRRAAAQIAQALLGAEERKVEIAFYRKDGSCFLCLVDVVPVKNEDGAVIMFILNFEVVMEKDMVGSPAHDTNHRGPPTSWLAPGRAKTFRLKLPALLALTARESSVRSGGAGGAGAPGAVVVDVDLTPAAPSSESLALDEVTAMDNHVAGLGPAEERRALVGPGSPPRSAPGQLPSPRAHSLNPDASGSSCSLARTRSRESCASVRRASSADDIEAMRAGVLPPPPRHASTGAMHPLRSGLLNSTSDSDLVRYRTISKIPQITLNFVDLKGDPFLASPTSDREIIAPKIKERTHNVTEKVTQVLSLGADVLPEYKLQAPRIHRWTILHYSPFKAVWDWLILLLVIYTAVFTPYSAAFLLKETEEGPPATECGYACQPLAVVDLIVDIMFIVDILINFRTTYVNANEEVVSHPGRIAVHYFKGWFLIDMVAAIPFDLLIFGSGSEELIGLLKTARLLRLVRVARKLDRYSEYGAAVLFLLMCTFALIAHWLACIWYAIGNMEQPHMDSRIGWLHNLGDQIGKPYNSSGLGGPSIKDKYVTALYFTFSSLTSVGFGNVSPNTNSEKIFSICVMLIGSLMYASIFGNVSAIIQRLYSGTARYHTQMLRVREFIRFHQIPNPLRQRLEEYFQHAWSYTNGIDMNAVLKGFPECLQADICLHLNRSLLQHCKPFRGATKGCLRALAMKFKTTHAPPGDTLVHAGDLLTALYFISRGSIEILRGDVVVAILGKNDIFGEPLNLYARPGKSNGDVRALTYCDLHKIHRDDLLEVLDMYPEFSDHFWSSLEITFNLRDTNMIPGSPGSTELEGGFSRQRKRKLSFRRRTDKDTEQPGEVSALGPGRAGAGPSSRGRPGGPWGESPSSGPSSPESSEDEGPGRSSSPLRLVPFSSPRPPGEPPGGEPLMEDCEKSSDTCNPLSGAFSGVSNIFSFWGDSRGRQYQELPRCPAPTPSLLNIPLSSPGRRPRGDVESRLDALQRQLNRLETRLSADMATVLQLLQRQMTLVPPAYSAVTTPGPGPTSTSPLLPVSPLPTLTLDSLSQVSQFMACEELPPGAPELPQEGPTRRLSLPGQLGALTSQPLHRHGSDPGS
T2 sequence (P16389 whole entry V381Y/T383V): as the sequence (P16389 whole entry R354A) above, with A354R, V381Y, T383V counted along it

On to `CC[C@H](C)[C@@H]1NC(=O)[C@@H]2CSSC[C@H](NC(=O)[C@H](C)N)C(=O)N[C@@H](CO)C(=O)N[C@@H](CCCCN)C(=O)N3CCC[C@H]3C(=O)N[C@H]3CSSC[C@H](NC(=O)[C@H](CCCNC(=N)N)NC(=O)CNC(=O)[C@H](CC(N)=O)NC1=O)C(=O)N[C@@H](Cc1c[nH]cn1)C(=O)N[C@H](C(=O)N[C@@H](Cc1ccc(O)cc1)C(=O)N[C@@H](Cc1ccc(O)cc1)C(=O)O)CSSC[C@H](NC(=O)[C@H](Cc1ccc(O)cc1)NC(=O)[C@H](CCCCN)NC(=O)[C@H](CCCNC(=N)N)NC3=O)C(=O)N[C@@H]([C@@H](C)CC)C(=O)N[C@@H](CC(=O)O)C(=O)N[C@@H](CCCCN)C(=O)NCC(=O)N[C@@H](C)C(=O)N[C@@H](CCCNC(=N)N)C(=O)N[C@@H](CC(N)=O)C(=O)NCC(=O)N[C@@H](CCCCN)C(=O)N2` [BmK86-P1] (H-ACSKPCRKYCIDKGARNGKCINGRCHCYY-OH; disulfide 2-20, 6-25, 10-27 (inferred); N-terminus and C-terminus assumed), for which the “inhibition of hKv1.6 channel currents” value in data set [1] is 11.0 ± 1.2%. Also, the “inhibition of hKv1.2-M3 chimeric channel currents” value in data set [2] stood at 1.5 ± 0.6%. In addition, the “inhibition of hERG channel currents” value in data set [3] is listed as 13.3 ± 3.3%. The “inhibition of hKv1.2-R354A channel currents” value in data set [4] is 73.3 ± 1.3%. The “inhibition of hKv1.2-M1 chimeric channel currents” value in data set [5] was determined as 1.0 ± 0.2%. The “thermal stability of secondary structure” value in data set [6] is listed as “thermally stable”. Also, the “inhibition of hKv1.1 channel currents” value in data set [7] (100 nM peptide) is 0.7 ± 0.1%; in data set [7] (1 μM peptide, room temperature (~25 °C)), 4.4 ± 2.6%.

Source of the values: publication PMC8472965, “BmK86-P1, a New Degradation Peptide with Desirable Thermostability and Kv1.2 Channel-Specific Activity from Traditional Chinese Scorpion Medicinal Material” (Toxins, 2021).
